Reference: patent publication US8178543B2, “Bi- and tricyclic fused pyrimidines as tyrosine kinase inhibitors” (Takeda Pharmaceutical Company Limited, priority 2004, dated 2012)

Assays:
[1] = test system: human breast cancer cell BT-474; test: Inhibitory action on breast cancer cell BT-474 proliferation in vitro; assay type: cell-based; conditions: 120 h, BT-474 cells, cultured 5 days, SRB staining
Procedure: A suspension of human breast cancer cell BT-474 (100 μl (6,000 cells)) were sown to a 96-well microplate and cultured in an incubator (37° C., 5% carbon dioxide). On the following day, 100 μl of a solution of each test compound, which was previously diluted 2-fold, was added, and the cells were cultured for 5 days. After the culture medium containing the test compound was removed, the cells were washed and fixed with 50% trichloroacetic acid, after which a 0.4% (w/v) SRB solution (dissolved in 1% acetic acid) was added to fix and stain the cell protein (Skehan et al., Journal of the National Cancer Institute, Vol. 82, pp. 1107-1112, 1990). After washing with a 1% acetic acid solution, 100 μl of an extract (10 mM Tris solution) was added to extract the pigment, and absorbance was measured at an absorption wavelength of 550 nm to quantify the amount of cells as protein content. Taking as 100% the protein content for the control group, which received no test compound solution, the ratio of the residual protein content for each treatment group was determined, and the compound concentration required to achieve 50% suppression of the residual cell content relative to the control (IC50 value) was calculated.

[2] = target: T1, EGF receptor intracellular domain protein (Homo sapiens, UniProt P00533); test: Determination of EGF receptor kinase inhibitory activity; assay type: biochemical; conditions: 1.0 μM test compound; biotinyl-poly-Glu:Tyr (4:1), AlphaScreen, 25° C., 10 min; read-out: EGF receptor kinase Inhibitory rate (%) at 1.0 μM
T1 construct: encoding EGF receptor intracellular domain region, so that the protein contains an N-terminal Flag tag; made in house; host or cells: SF-21 insect cells, recombinant baculovirus BAC-EGFR
Procedure: Human EGF receptor gene was cloned by RT-PCR using total RNA prepared from A431 cells as a template. The primer for RT-PCR was prepared from nucleotide sequence (Genbank Accession XM—167493) information of EGF receptor gene by adding a nucleotide sequence encoding flag peptide and a restriction enzyme recognition sequence to a nucleotide sequence (2182-3810 of Genbank Accession XM—167493) encoding EGF receptor intracellular domain region, so that the protein contains an N-terminal Flag tag. The primer nucleotide sequence is shown below.
The RT reaction was conducted using SuperScript First-Strand Synthesis System for RT-PCR (Invitrogen) and the PCR reaction was conducted using a KOD-plus kit (TOYOBO). The obtained PCR product was electrophoresed on agarose gel (1%), the DNA fragment amplified by PCR was recovered from the gel, and then digested with restriction enzymes Sal I and Sph I. The DNA treated with the restriction enzymes was electrophoresed on agarose gel (1%), and the obtained DNA fragment was recovered and ligated to plasmid pFASTBAC1 (Invitrogen) digested with restriction enzymes Sal I and Sph I to give expression plasmid pFB-EGFR. The nucleotide sequence of insertion fragment was confirmed and found to be identical with the nucleotide sequence (2182-3810 of Genbank Accession XM—167493) of EGFR intracellular domain. Furthermore, using BAC-TO-BAC Baculovirus Expression System (Invitrogen), virus stock BAC-EGFR of recombinant baculovirus was prepared.
SF-21 cells were sown at 1×10^6 cells/mL to Sf-900II SFM medium (1 L, Invitrogen) containing 10% fetal bovine serum (trace), 50 mg/L gentamicin (Invitrogen) and 0.1% Pluronic F-68 (Invitrogen), and shaking culture was performed using a 2 L volume Erlenmeyer flask at 27° C., 100 rpm. After culturing for 24 hrs, recombinant baculovirus BAC-EGFR (13.4 mL) was added, and the mixture was further cultured for 3 days. The culture medium was centrifuged at 2,000 rpm for 5 min. to give virus-infected cells. The infected cells were washed with a phosphate buffered saline (Invitrogen), centrifuged under the same conditions, and the cells were preserved at −80° C. The cryopreserved cells were thawed in ice, suspended in buffer A (50 mM Tris buffer (30 mL, pH7.4) containing 20% glycerol, 0.15 M NaCl) supplemented with Complete Protease Inhibitor (Boehringer), and ruptured 3 times with a Polytron homogenizer (Kinematica) at 20,000 rpm for 30 sec. The ruptured medium was clarified by centrifugation at 40,000 rpm for 30 min. and filtered with a 0.45 μm filter. The filtrate was passed through a column packed with Anti-FLAG M2 Affinity Gel (4 mL, Sigma) at a flow rate of about 0.5 mL/min. The column was washed with buffer A, and eluted with buffer A containing 100 μg/mL of FLAG peptide. The eluate was concentrated with Vivaspin 20 (Vivascience) having a molecular weight cut off of 30K. The buffer of this concentrate was exchanged using NAPE 25 column (Amersham Bioscience) equilibrated with buffer A. The fractions containing EGF receptor intracellular domain protein were collected, glycerol was added to the final concentration of 50% and cryopreserved at −80° C.
A test compound dissolved in dimethyl sulfoxide (DMSO) was diluted with a buffer (50 mM Tris-HCl (pH 7.5), 5 mM MgCl2, 5 mM MnCl2, 2 mM dithiothreitol, 0.01% Tween-20). To this compound solution (5 μL) was added a buffer (10 μL) containing 250 ng/mL of EGF receptor intracellular domain protein and 250 ng/mL of biotin labeled polypeptide biotinyl-poly-Glu:Tyr (4:1) (CIS bio International). […]

T1 sequence (P00533 669-1210 limits assumed): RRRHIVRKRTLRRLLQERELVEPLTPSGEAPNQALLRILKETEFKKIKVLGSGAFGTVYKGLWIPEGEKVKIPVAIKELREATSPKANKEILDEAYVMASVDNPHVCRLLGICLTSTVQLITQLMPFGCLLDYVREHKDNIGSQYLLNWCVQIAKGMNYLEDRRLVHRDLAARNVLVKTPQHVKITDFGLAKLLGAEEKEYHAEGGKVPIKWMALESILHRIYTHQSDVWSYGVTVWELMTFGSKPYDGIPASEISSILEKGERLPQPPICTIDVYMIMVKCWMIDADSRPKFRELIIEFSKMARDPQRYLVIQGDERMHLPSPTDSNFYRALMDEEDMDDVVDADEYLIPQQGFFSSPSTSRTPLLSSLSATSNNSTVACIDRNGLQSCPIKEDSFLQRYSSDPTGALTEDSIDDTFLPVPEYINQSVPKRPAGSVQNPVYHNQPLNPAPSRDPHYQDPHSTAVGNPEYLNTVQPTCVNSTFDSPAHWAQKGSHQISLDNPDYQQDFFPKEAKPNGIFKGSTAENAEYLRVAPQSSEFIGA

IC50 [1] [nM] | inhibition at 1 µM [2] [%] | SMILES
< 100 | – | CN(C)C/C=C/C(=O)NCc1cc2ncnc(Nc3ccc(OCc4cccc(F)c4)c(Cl)c3)c2[nH]1 [Example 82, (2E)-N-{[4-({3-chloro-4-[(3-fluorobenzyl)oxy]phenyl}amino)-5H-pyrrolo[3,2-d]pyrimidin-6-yl]methyl}-4-(dimethylamino)but-2-enamide]
< 100 | 98 | CN(C)C/C=C/C(=O)NC/C=C/c1cc2ncnc(Nc3ccc(OCc4cccc(F)c4)c(Cl)c3)c2[nH]1 [Example 92, (2E)-N-{(2E)-3-[4-({3-chloro-4-[(3-fluorobenzyl)oxy]phenyl}amino)-5H-pyrrolo[3,2-d]pyrimidin-6-yl]prop-2-enyl}-4-(dimethylamino)but-2-enamide]
< 100 | – | CC(C)(C)S(=O)(=O)CCOCCn1ccc2ncnc(Nc3ccc(Oc4cccc(C(F)(F)F)c4)c(Cl)c3)c21 [Example 176, 5-{2-[2-(tert-butylsulfonyl)ethoxy]ethyl}-N-{3-chloro-4-[3-(trifluoromethyl)phenoxy]phenyl}-5H-pyrrolo[3,2-d]pyrimidin-4-amine]
